Experimental data taken from patent US20240383922A1, “KRAS Modulating Compounds” (Gilead Sciences, Inc., priority 2023, published 2024).
pEC50: −log10 of the molar value. Read-outs that look alike come from different tables or passages of the source.

Key:
[1] = tested on: cellular pERK in NCI-H441 (KRAS-G12V) cell-line; assay: Cell based pERK assay (HTRF), NCI-H441; details: NCI-H441 (KRAS-G12V) cells, 2 hours incubation
Experimental: (§1) Compounds were tested in a 384-well assay format for their ability to inhibit cellular pERK in Kuramochi (WT KRAS), MIA-PaCa-2 (KRAS-G12C), ASPC-1 (KRAS G12D), and NCI-H441 (KRAS-G12V) cell-lines. Compounds were serially diluted (1:3) in DMSO. On day −1, 80 uL of cells were plated per well in the 384 well tissue-culture plates (Greiner: Cat #781080) to seed 5000 cells per wells of AsPC-1 or 7500 cells of MIA-PaCa-2, NCI-H441, and Kuramochi cell lines in RPMI (Corning: Cat #10-040-CM) with 10% fetal bovine serum (FBS) (HyClone: Cat #SH30071-03) and 1× penicillin-streptomycin-glutamate (PSG) (Corning: Cat #30-009-CI) for […] and Kuramochi cell lines and DMEM (Corning: Cat #15-018-CM) with […] and 1× PSG for MKA-PaCa-2 cell line. The plates were then incubated overnight at 37° C. and 5% CO2. On day 0, 400 nL of compound/well was added into the cell plates and mixed 5 times by pipetting using a Beckmann Biomek FX. The cell plates were then incubated for 2 hours at 37° C. and 5% CO2. HTRF Advanced Phospho-ERK1/2 ([…]) Detection Kits (PerkinElmer: Cat #64AERPEG) were used to prepare the lysis and detection solution according to manufacturer protocol. Following the 2 hour incubation, 70 μL of medium was aspirated from the plates and 10 uL of lysis and detection solution was added to the plates using a Biotek EL406 washer and dispenser. Plates were sealed and stored overnight at room temperature. HTRF ratio (665 nm/615 nm) was read by Envision multimode reader (PerkinElmer) the next day. The TR-FRET ratios were normalized to a positive (saturating concentration of known inhibitor) and negative (DMSO) control and plotted against the log of compound concentration. IC50 values were defined as the compound concentration that causes a […] in normalized signal and were calculated using a sigmoidal dose-response model to generate curve fits.

[2] = tested on: cellular pERK in ASPC-1 (KRAS G12D) cell-line; assay: Cell based pERK assay (HTRF), ASPC-1; details: ASPC-1 (KRAS G12D) cells, 2 hours incubation
Experimental: as §1

[3] = tested on: cellular pERK in Kuramochi (WT KRAS) cell-line; assay: Cell based pERK assay (HTRF), Kuramochi; details: Kuramochi (WT KRAS) cells, 2 hours incubation
Experimental: as §1

[4] = tested on: cellular pERK in MIA-PaCa-2 (KRAS-G12C) cell-line; assay: Cell based pERK assay (HTRF), MIA-PaCa-2; details: MIA-PaCa-2 (KRAS-G12C) cells, 2 hours incubation, read-out: MIAPaCa2 pERK EC50
Experimental: as §1

Row | pEC50 [1] | pEC50 ([2]; read-out: AsPC1 pERK EC50) | pEC50 [3] | pEC50 [4] | pEC50 ([1]; Homo sapiens) | pEC50 ([2]; Homo sapiens, ASPC1) | pEC50 ([4]; Homo sapiens) | SMILES
1 | 7.26 | 7.07 | 6.86 | 7.33 |  |  |  | C#Cc1c(F)ccc2cc(O)cc(-c3c(F)c4c5c(nc(OC[C@@]67CCCN6C[C@H](F)C7)nc5c3F)N3CCCOC[C@@H]3CC4)c12 (atropisomer, axis not shown) [Example 24-1, 4-((11S,14a5)-10,12-difluoro-8-(((2R,7a5)-2-fluorotetrahydro-1H-pyrrolizin-7a(5H1)-yl)methoxy)-1,4,5,13,14,14a-hexahydro-3H-[1,4]oxazepino[4′,3′:1,7]azepino[2,3,4-de]quinazolin-11-yl)-5-ethynyl-6-fluoronaphthalen-2-ol]
2 | 8.10 | 8.77 | 8.58 | 9.09 |  |  |  | C#Cc1c(F)ccc2cc(O)cc(-c3c(F)c4c5c(nc(OC[C@@]67CCCN6C[C@H](F)C7)nc5c3F)N3CCCOC[C@@H]3CC4)c12 (atropisomer, axis not shown) [Example 24-2, 4-((11R,14aS)-10,12-difluoro-8-(((2R,7aS)-2-fluorotetrahydro-1H-pyrrolizin-7a(5H)-yl)methoxy)-1,4,5,13,14,14a-hexahydro-3H-[1,4]oxazepino[4′,3′:1,7]azepino[2,3,4-de]quinazolin-11-yl)-5-ethynyl-6-fluoronaphthalen-2-ol]
3 | < 6.00 | < 6.00 | < 6.00 |  |  |  |  | C#Cc1c(F)ccc2cc(N)cc(-c3c(F)c4c5c(nc(OC[C@@]67CCCN6C[C@H](F)C7)nc5c3F)N3CCCOC[C@@H]3CC4)c12 (atropisomer, axis not shown) [Example 25-1, 4-((11S,14aS)-10,12-difluoro-8-(((2R,7aS)-2-fluorotetrahydro-1H-pyrrolizin-7a(5H)-yl)methoxy)-1,4,5,13,14,14a-hexahydro-3H-[1,4]oxazepino[4′,3′:1,7]azepino[2,3,4-de]quinazolin-11-yl)-5-ethynyl-6-fluoronaphthalen-2-amine]
4 |  |  |  |  | 8.43 | 7.97 | 9.15 | C#Cc1c(F)ccc2cc(O)cc(-c3nc4c5c(nc(OC[C@@]67CCCN6C[C@H](F)C7)nc5c3F)N3CC(F)(F)COCC3CC4)c12 (mixture of isomers) [Example 6-17]
5 |  |  | 8.03 |  | 7.06 | 6.92 | 7.96 | C#Cc1c(F)ccc2cc(O)cc(-c3nc4c5c(nc(OC[C@@]67CCCN6C[C@H](F)C7)nc5c3F)N3CCCCCC3CC4)c12 (mixture of isomers) [Example 6-20]
6 |  |  | 7.33 |  | 6.99 | 6.50 | 7.80 | C#Cc1c(F)ccc2cc(O)cc(-c3nc4c5c(nc(OC[C@@]67CCCN6C[C@H](F)C7)nc5c3F)N3CCOCC[C@H]3CC4)c12 (single isomer, unassigned) [Example 9-1]
7 |  |  | 8.07 |  | 7.16 | 6.68 | 7.74 | C#Cc1c(F)ccc2cc(O)cc(-c3nc4c5c(nc(OC[C@@]67CCCN6C[C@H](F)C7)nc5c3F)N3CCOCC[C@H]3CCC4)c12 (single isomer, unassigned) [Example 10-1]
8 |  |  | 6.47 |  | < 6.00 | < 6.00 | 6.61 | C#Cc1c(F)ccc2cc(O)cc(-c3nc4c5c(nc(OC[C@@]67CCCN6C[C@H](F)C7)nc5c3F)N3CCOCC[C@@H]3CCC4)c12 (single isomer, unassigned) [Example 10-2]
9 |  |  | 8.53 |  | 8.11 | 7.26 | 9.05 | C#Cc1c(F)ccc2cc(O)cc(-c3nc4c5c(nc(OC[C@@]67CCCN6C[C@H](F)C7)nc5c3F)N3CC(F)(F)COC[C@H]3CC4)c12 (single isomer, unassigned) [Example 17-1]
10 |  |  | 8.64 |  | 8.29 | 7.97 | 8.89 | C#Cc1c(F)ccc2cc(O)cc(-c3nc4c5c(nc(OC[C@@]67CCCN6C[C@H](F)C7)nc5c3F)N3CC(F)(F)COC[C@@H]3CC4)c12 (single isomer, unassigned) [Example 17-2]
11 | 7.04 | 7.17 |  |  |  |  |  | C#Cc1c(F)ccc2cc(N)cc(-c3c(F)c4c5c(nc(OC[C@@]67CCCN6C[C@H](F)C7)nc5c3F)N3CCCOC[C@@H]3CC4)c12 (single isomer, unassigned) [Example 25-2]
12 | 7.83 | 7.60 | 8.41 | 7.90 |  |  |  | C#Cc1c(F)ccc2cc(O)cc(-c3nc4c5c(nc(OC[C@@]67CCCN6C[C@H](F)C7)nc5c3F)N3CCCC[C@H]3CC4)c12 [Example 1-1, 5-ethynyl-6-fluoro-4-((S)-1-fluoro-11-(((2R,7aS)-2-fluorotetrahydro-1H-pyrrolizin-7a(5H)-yl)methoxy)-5,5a,6,7,8,9-hexahydro-4H-3,9a,10,12-tetraazabenzo[4,5]cyclohepta[1,2,3-de]naphthalen-2-yl)naphthalen-2-ol]
13 | 7.13 | 6.94 | 7.61 | 7.26 |  |  |  | CCc1c(F)ccc2cc(O)cc(-c3nc4c5c(nc(OC[C@@]67CCCN6C[C@H](F)C7)nc5c3F)N3CCCC[C@H]3CC4)c12 [Example 2-1, 5-ethyl-6-fluoro-4-((S)-1-fluoro-11-(((2R,7aS)-2-fluorotetrahydro-1H-pyrrolizin-7a(5H)-yl)methoxy)-5,5a,6,7,8,9-hexahydro-4H-3,9a,10,12-tetraazabenzo[4,5]cyclohepta[1,2,3-de]naphthalen-2-yl)naphthalen-2-ol]
14 |  |  | 7.33 |  | 6.99 | 6.54 | 7.06 | C#Cc1c(F)ccc2cc(N)cc(-c3cc4c5c(nc(OC[C@@]67CCCN6C[C@H](F)C7)nc5c3F)N3CCCOCC3CC4)c12 (stereo partly drawn) [Example 3-2]
15 |  |  | 8.87 |  | 9.38 | 8.90 | 9.96 | C#Cc1c(F)ccc2cc(O)cc(-c3nc4c5c(nc(OC[C@@]67CCCN6C[C@H](F)C7)nc5c3F)N3CCCOC[C@@H]3CC4)c12 [Example 6-1, 5-ethynyl-6-fluoro-4-((S)-1-fluoro-12-(((2R,7aS)-2-fluorotetrahydro-1H-pyrrolizin-7a(5H)-yl)methoxy)-4,5,5a,6,9,10-hexahydro-8H-7-oxa-3,10a,11,13-tetraazanaphtho[1,8-ab]heptalen-2-yl)naphthalen-2-ol]
16 |  |  | 8.35 |  | 8.68 | 8.43 | 9.00 | C#Cc1c(F)ccc2cc(O)cc(-c3nc4c5c(nc(OC[C@@]67CCCN6C[C@H](F)C7)nc5c3F)N3CCCOCC3CC4)c12 (stereo partly drawn) [Example 6-2]
17 |  |  | 7.59 |  | 7.32 | 7.04 | 7.54 | Oc1cc(-c2nc3c4c(nc(OC[C@@]56CCCN5C[C@H](F)C6)nc4c2F)N2CCCOC[C@H]2CC3)c2c(F)c(F)ccc2c1 [Example 6-3]
18 |  |  | < 6.00 |  | < 6.00 | < 6.00 | < 6.00 | C#Cc1c(F)ccc2cccc(-c3nc4c5c(nc(OC[C@@]67CCCN6C[C@H](F)C7)nc5c3F)N3CCCOC[C@H]3CC4)c12 [Example 6-4]
19 |  |  | 7.35 |  | 7.49 | 7.07 | 7.87 | C#Cc1c(F)ccc2cc(O)cc(-c3nc4c5c(nc(OC[C@@]67CCCN6C[C@H](F)C7)nc5c3F)N3CCCOC[C@H]3CC4)c12 [Example 6-5]
20 |  |  |  |  | 8.40 | 8.06 | 8.71 | C#Cc1c(F)ccc2cc(N)cc(-c3nc4c5c(nc(OC[C@@]67CCCN6C[C@H](F)C7)nc5c3F)N3CCCOC[C@@H]3C=C4C)c12 [Example 7-7]
21 |  |  | 6.73 |  | 6.14 | < 6.00 |  | Cc1c(F)c(N)cc(-c2nc3c4c(nc(OC[C@@]56CCCN5C[C@H](F)C6)nc4c2F)N2CCCOC[C@@H]2CC3)c1C(F)(F)F [Example 7-11]
22 |  |  | 6.89 |  | < 6.00 | < 6.00 |  | CCc1c(F)c(F)cc2cc(N)cc(-c3nc4c5c(nc(OCC67CCCN6CCC7)nc5c3F)N3CCCOC[C@@H]3CC4)c12 [Example 8-4]
23 |  |  | 8.39 |  | 7.24 | 7.11 |  | C#Cc1c(F)ccc2cc(N)cc(-c3nc4c5c(nc(OC[C@@]67CCCN6[C@H](COC(=O)N(C)C)CC7)nc5c3F)N3CCCOC[C@@H]3CC4)c12 [Example 23-4]
